{"source": "patent US20260297542A1", "about": "“HERBICIDE RESISTANT PLANTS” (SYNGENTA CROP PROTECTION AG, priority 2023, published 2026)", "assay_in_all_cases": "E. coli hemG growth inhibition by herbicide, AtPPO1 variant", "type_in_all_cases": "cell-based", "settings_in_all_cases": "read-out: percentage growth inhibition", "key": {"AtPPO1 D448H": {"target": "T1, AtPPO1 D448H (Arabidopsis thaliana, UniProt P55826, D448H)", "T1 construct": "expressed in transfected cells; host or cells: E. coli BL21(DE3) hemG (pET24a, T7 promoter)", "T1 sequence (P55826 35-537 D448H)": "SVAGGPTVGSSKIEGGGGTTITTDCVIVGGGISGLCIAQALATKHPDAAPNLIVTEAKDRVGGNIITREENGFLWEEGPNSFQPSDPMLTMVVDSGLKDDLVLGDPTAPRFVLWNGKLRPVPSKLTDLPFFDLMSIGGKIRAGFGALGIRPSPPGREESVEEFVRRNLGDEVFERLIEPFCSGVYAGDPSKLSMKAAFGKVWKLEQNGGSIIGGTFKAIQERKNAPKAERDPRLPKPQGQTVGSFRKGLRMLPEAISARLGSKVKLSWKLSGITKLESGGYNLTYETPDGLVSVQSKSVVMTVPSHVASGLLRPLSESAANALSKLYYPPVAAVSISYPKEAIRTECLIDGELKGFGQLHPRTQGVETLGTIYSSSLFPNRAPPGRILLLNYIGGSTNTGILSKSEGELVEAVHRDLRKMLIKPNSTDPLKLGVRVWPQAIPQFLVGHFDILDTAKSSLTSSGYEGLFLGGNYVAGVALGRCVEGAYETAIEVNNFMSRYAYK", "text": "(§1) A pET24a plasmid containing a DNA sequence encoding a variant of PPO1 derived from Arabidopsis thaliana (AtPPO1), codon-optimised for expression in E. coli and under control of a T7 promoter, was synthesised by Twist Bioscience (SEQ ID NO:3). This plasmid was used as the basis of a Site Saturation Variant Library (SSVL) that substituted the codons at 352 amino acid positions for codons that encoded one of the other 19 amino acids, or removed the codon altogether, resulting in a translation product with a deletion at that position.\n(§2) The SSVL was batch-transformed by electroporation into an E. coli BL21(DE3) hemG strain with the hemG gene replaced by CmR conferring resistance to chloramphenicol and spread onto LA supplemented with 50 μg/mL kanamycin, 25 μg/mL chloramphenicol and 20 μg/mL hematin. Each batch consisted of all the plasmids that contained variants at two sites.\n(§3) Colonies from batch transformations were inoculated into 500 μL of Terrific broth supplemented with 50 μg/mL kanamycin, 25 μg/mL chloramphenicol and 20 μg/mL hematin in 96-deepwell blocks. Cultures were grown for 24 hours at 37° C. with shaking at 250 rpm.\n(§4) Overnight cultures were centrifuged and the cell pellets resuspended with 500 μL of Terrific broth. The resuspended cultures were used at a ratio of 1:100 to inoculate a fresh 96-deepwell block containing 500 μL of Terrific broth supplemented with 0.1 mM IPTG, 50 μg/mL kanamycin, 25 μg/mL chloramphenicol and 6.25 ppm of herbicide […] or E or 0.78 ppm herbicide B or DMSO. Assay cultures were grown for 24 hours at 37° C. with shaking at 250 rpm with the OD600 being measured at 24 hours post inoculation. Strains that grew in both DMSO and herbicide were determined to be herbicide tolerant with the percentage of growth inhibition being calculated as below: […]"}, "AtPPO1 G64A": {"target": "T2, AtPPO1 G64A (Arabidopsis thaliana, UniProt P55826, G64A)", "T2 construct": "expressed in transfected cells; host or cells: E. coli BL21(DE3) hemG (hemG replaced by CmR), pET24a plasmid", "T2 sequence (P55826 35-537 G64A)": "T1 sequence (P55826 35-537 D448H) with G30A, H414D", "text": "as §1, §2, §3, §4"}, "AtPPO1 L360C": {"target": "T3, AtPPO1 L360C (Arabidopsis thaliana, UniProt P55826, L360C)", "T3 construct": "expressed in transfected cells; host or cells: E. coli BL21(DE3) hemG (pET24a, T7 promoter)", "T3 sequence (P55826 35-537 L360C)": "T1 sequence (P55826 35-537 D448H) with L326C, H414D", "text": "as §1, §2, §3, §4"}, "AtPPO1 V127I": {"target": "T4, AtPPO1 V127I (Arabidopsis thaliana, UniProt P55826, V127I)", "T4 construct": "expressed in transfected cells; host or cells: E. coli BL21(DE3) hemG (hemG replaced by CmR), pET24a plasmid", "T4 sequence (P55826 35-537 V127I)": "T1 sequence (P55826 35-537 D448H) with V93I, H414D", "text": "as §1, §2, §3, §4"}}, "note": "Substitutions are numbered along the chain they refer to."}
{"smiles": "CCOC(=O)[C@]1(C)CC(c2cc(-n3c(=O)n(C)c(=S)n(C)c3=O)c(F)cc2Cl)=NO1", "note": "[Herbicide D, ethyl (5S)-3-[2-chloro-5-(3,5-dimethyl-2,6-dioxo-4-thioxo-1,3,5-triazinan-1-yl)-4-fluoro-phenyl]-5-methyl-4H-isoxazole-5-carboxylate]", "values": [{"measurement": "inhibition at 6.25 ppm", "setting": "AtPPO1 D448H", "value": 26, "unit": "%"}, {"measurement": "inhibition at 6.25 ppm", "setting": "AtPPO1 G64A", "value": 38, "unit": "%"}, {"measurement": "inhibition at 6.25 ppm", "setting": "AtPPO1 L360C", "value": 21, "unit": "%"}, {"measurement": "inhibition at 6.25 ppm", "setting": "AtPPO1 V127I", "value": 23, "unit": "%"}]}
{"smiles": "C#CCN1C(=O)C(F)(F)Oc2cc(F)c(-n3c(=O)n(C)c(=S)n(C)c3=O)cc21", "note": "[Herbicide B, trifludimoxazin]", "values": [{"measurement": "inhibition at 0.78 ppm", "setting": "AtPPO1 D448H", "value": 31, "unit": "%"}, {"measurement": "inhibition at 0.78 ppm", "setting": "AtPPO1 G64A", "value": 36, "unit": "%"}, {"measurement": "inhibition at 0.78 ppm", "setting": "AtPPO1 L360C", "value": 25, "unit": "%"}, {"measurement": "inhibition at 0.78 ppm", "setting": "AtPPO1 V127I", "value": 28, "unit": "%"}]}
{"smiles": "CC(C)N(C)S(=O)(=O)NC(=O)c1cc(-n2c(=O)cc(C(F)(F)F)n(C)c2=O)c(F)cc1Cl", "note": "[Herbicide E, saflufenacil]", "values": [{"measurement": "inhibition at 6.25 ppm", "setting": "AtPPO1 D448H", "value": 57, "unit": "%"}, {"measurement": "inhibition at 6.25 ppm", "setting": "AtPPO1 G64A", "value": 34, "unit": "%"}, {"measurement": "inhibition at 6.25 ppm", "setting": "AtPPO1 L360C", "value": 33, "unit": "%"}, {"measurement": "inhibition at 6.25 ppm", "setting": "AtPPO1 V127I", "value": 69, "unit": "%"}]}
